Legend:
Test in all cases: relative viability (nuclei count vs DMSO), 5 days (fraction); higher = more cells survive
Apatinib + Crizotinib = compound: N#CC1(c2ccc(NC(=O)c3cccnc3NCc3ccncc3)cc2)CCCC1 [Apatinib] + C[C@@H](Oc1cc(-c2cnn(C3CCNCC3)c2)cnc1N)c1c(Cl)ccc(F)c1Cl [Crizotinib] (partner 1 µM)
Procedure, shortened: (§1)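 Medians of duplicate plates are given as relative viability. That measure is the nuclei count in treated wells divided by the count in vehicle wells. Counts were taken on 4× images of lung cancer cell lines in 1536-well plates, 5 days after pin-tool dosing the day after seeding with one drug alone or a fixed anchor-drug dose plus five library-drug doses (not always all listed) in √10 steps.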

Apatinib + Olaparib = compound: N#CC1(c2ccc(NC(=O)c3cccnc3NCc3ccncc3)cc2)CCCC1 [Apatinib] + O=C(c1cc(Cc2n[nH]c(=O)c3ccccc23)ccc1F)N1CCN(C(=O)C2CC2)CC1 [Olaparib] (partner 8 µM)
Procedure, shortened: as §1

Metformin + Dasatinib = compound: CN(C)C(=N)NC(=N)N [Metformin] + Cc1nc(Nc2ncc(C(=O)Nc3c(C)cccc3Cl)s2)cc(N2CCN(CCO)CC2)n1 [Dasatinib] (partner 0.075 µM)
Procedure, shortened: as §1

Metformin + Lapatinib = compound: CN(C)C(=N)NC(=N)N [Metformin] + CS(=O)(=O)CCNCc1ccc(-c2ccc3ncnc(Nc4ccc(OCc5cccc(F)c5)c(Cl)c4)c3c2)o1 [Lapatinib] (partner 2 µM)
Procedure, shortened: as §1

| Cell Line | relative viability (Apatinib + Crizotinib; first compound 0.253 µM) | relative viability (Apatinib + Crizotinib; first compound 0.8 µM) | relative viability (Apatinib + Crizotinib; first compound 2.53 µM) | relative viability (Apatinib + Crizotinib; first compound 8 µM) | relative viability (Apatinib + Olaparib; first compound 0.08 µM) | relative viability (Apatinib + Olaparib; first compound 0.253 µM) | relative viability (Apatinib + Olaparib; first compound 0.8 µM) | relative viability (Apatinib + Olaparib; first compound 2.53 µM) | relative viability (Apatinib + Olaparib; first compound 8 µM) | relative viability (Metformin + Dasatinib; first compound 10 µM) | relative viability (Metformin + Dasatinib; first compound 31.62 µM) | relative viability (Metformin + Dasatinib; first compound 100 µM) | relative viability (Metformin + Dasatinib; first compound 316.23 µM) | relative viability (Metformin + Dasatinib; first compound 1000 µM) | relative viability (Metformin + Lapatinib; first compound 10 µM) | relative viability (Metformin + Lapatinib; first compound 31.62 µM) | relative viability (Metformin + Lapatinib; first compound 100 µM) | relative viability (Metformin + Lapatinib; first compound 316.23 µM) | relative viability (Metformin + Lapatinib; first compound 1000 µM) | relative viability (Apatinib + Crizotinib; first compound 0.08 µM) |
| --- | --- | --- | --- | --- | --- | --- | --- | --- | --- | --- | --- | --- | --- | --- | --- | --- | --- | --- | --- | --- |
| ChaGo-K-1 | 1.09 | 1.1 | 1.05 | 0.901 | 0.47 | 0.523 | 0.443 | 0.408 | 0.344 | 0.742 | 0.712 | 0.637 | 0.501 | 0.722 | – | – | – | – | – | – |
| EBC-1 | 0.185 | 0.178 | 0.211 | 0.208 | 0.76 | 0.698 | 0.65 | 0.588 | 0.472 | – | – | – | – | – | 0.182 | 0.181 | 0.23 | 0.281 | 0.248 | 0.211 |
| EKVX | 1.06 | 0.941 | 0.654 | 0.671 | 0.801 | 0.793 | 0.88 | 0.734 | 0.587 | – | 0.856 | 0.598 | 0.671 | 0.779 | 0.185 | 0.16 | 0.176 | 0.222 | 0.196 | 0.793 |
| EMC-BAC-2 | 0.73 | 0.764 | 0.633 | 0.475 | 0.57 | 0.507 | 0.44 | 0.363 | 0.319 | 0.37 | 0.312 | 0.323 | 0.334 | 0.395 | 0.886 | 0.951 | 0.891 | 0.843 | 0.925 | 0.726 |
| EPLC-272H | 0.933 | 0.767 | 0.8 | 0.991 | 0.759 | 0.806 | 0.822 | 0.605 | 0.604 | 0.358 | 0.445 | 0.462 | 0.426 | 0.394 | 1.22 | 1.09 | 1.09 | 1.15 | 1.05 | 0.944 |
| H3255 | 0.841 | 0.907 | 0.723 | 0.786 | 0.621 | 0.627 | 0.609 | 0.516 | 0.455 | 0.391 | 0.344 | 0.232 | 0.402 | 0.315 | 0.254 | 0.227 | 0.291 | 0.29 | 0.211 | 0.956 |
| HARA | 0.944 | 1.05 | 1.05 | 0.806 | 0.761 | 0.582 | 0.848 | – | 0.706 | – | 0.311 | 0.389 | 0.319 | 0.423 | 1 | 1 | 1.14 | 1 | 0.957 | 1.04 |
| HCC-15 | 0.814 | 0.811 | 0.799 | 0.717 | 0.657 | 0.76 | 0.686 | 0.615 | 0.54 | – | 0.625 | 0.581 | 0.556 | 0.584 | 0.54 | 0.908 | 0.891 | 0.785 | 0.913 | 0.85 |
| HCC-44 | 0.858 | 0.779 | 0.716 | 0.705 | 0.989 | 1 | 0.924 | 0.97 | 0.971 | – | – | – | – | – | 1.05 | 0.976 | 1.03 | 0.939 | 1.03 | 0.807 |

— the supplement of paper PMC10307832
